Test results: US7781591B2, “Substituted 3-cyanopyridines as protein kinase inhibitors” (Wyeth LLC, priority 2006, dated 2010)

What follows are compounds tested against T1, human PKCθ full length enzyme (Homo sapiens, UniProt Q04759) (assay: PKCθ IMAP assay (fluorescence polarization)). Conditions: not given.
T1 construct: human PKCθ full length enzyme (Panvera Cat# P2996); purchased Panvera P2996
Type: biochemical

T1 sequence (Q04759 whole entry): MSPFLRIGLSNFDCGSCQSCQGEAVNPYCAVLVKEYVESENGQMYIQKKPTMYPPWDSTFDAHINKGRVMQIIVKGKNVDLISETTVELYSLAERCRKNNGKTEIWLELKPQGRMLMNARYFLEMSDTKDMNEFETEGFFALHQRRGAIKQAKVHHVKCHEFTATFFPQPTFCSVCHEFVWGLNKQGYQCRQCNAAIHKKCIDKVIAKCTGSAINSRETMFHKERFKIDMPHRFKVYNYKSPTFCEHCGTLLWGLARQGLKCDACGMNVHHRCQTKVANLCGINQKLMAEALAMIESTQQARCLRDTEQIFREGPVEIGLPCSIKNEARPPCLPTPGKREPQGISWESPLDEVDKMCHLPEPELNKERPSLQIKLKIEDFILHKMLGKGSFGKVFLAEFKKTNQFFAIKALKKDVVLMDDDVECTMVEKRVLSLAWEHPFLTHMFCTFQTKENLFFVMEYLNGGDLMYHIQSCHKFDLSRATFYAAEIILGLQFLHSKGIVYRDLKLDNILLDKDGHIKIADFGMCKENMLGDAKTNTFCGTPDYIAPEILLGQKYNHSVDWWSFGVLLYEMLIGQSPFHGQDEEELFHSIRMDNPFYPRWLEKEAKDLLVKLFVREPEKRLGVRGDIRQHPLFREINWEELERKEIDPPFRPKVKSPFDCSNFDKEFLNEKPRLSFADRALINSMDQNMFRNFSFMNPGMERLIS

Compound	IC50 [nM]
Cc1c(Nc2c(C#N)cncc2-c2cc3cc(CN4CC[N+](C)([O-])CC4)ccc3o2)ccc2[nH]ccc12 [Compound 554, 4-[(4-methyl-1H-indol-5-yl)amino]-5-{5-[(4-methyl-4-oxidopiperazin-1-yl)methyl]-1-benzofuran-2-yl}nicotinonitrile]	6

Same assay, conditions: human PKCθ full length enzyme, IMAP; average value; read-out: IC50 PKCθ IMAP

Compound	IC50 [nM]
Cc1c(Nc2c(C#N)cncc2-c2ccc(OCCCl)cc2)cc(Cl)c2[nH]ccc12 [Compound 533, 5-[4-(2-chloroethoxy)phenyl]-4-[(7-chloro-4-methyl-1H-indol-5-yl)amino]nicotinonitrile]	51
Cc1c(Nc2c(C#N)cncc2-c2ccc3ccccc3c2)ccc2[nH]ccc12 [Compound 582, 4-[(4-methyl-1H-indol-5-yl)amino]-5-(2-naphthyl)nicotinonitrile]	92
CN(C)c1ccc(-c2cncc(C#N)c2Nc2ccc3[nH]ncc3c2)cc1 [Compound 292, 5-[4-(dimethylamino)phenyl]-4-(1H-indazol-5-ylamino)nicotinonitrile]	13200
N#Cc1cncc(-c2cccc(-c3ccc(C(=O)NCc4cccnc4)cc3)c2)c1Nc1ccc2[nH]ccc2c1 [Compound 213, 3′-[5-cyano-4-(1H-indol-5-ylamino)pyridin-3-yl]-N-(pyridin-3-ylmethyl)biphenyl-4-carboxamide]	270
CC(=O)Nc1cccc(-c2cncc(C#N)c2Nc2ccc3[nH]ccc3c2C)c1 [Compound 578, N-(3-{5-cyano-4-[(4-methyl-1H-indol-5-yl)amino]pyridin-3-yl}phenyl)acetamide]	97
4-[(4-methyl-1H-indol-5-yl)amino]-5-(5-{[(3-phenylpropyl)amino]methyl}-2-furyl)nicotinonitrile [Compound 409]	27
N#Cc1cncc(-c2ccsc2)c1Nc1ccc2[nH]ccc2c1 [Compound 258, 4-(1H-indol-5-ylamino)-5-(3-thienyl)nicotinonitrile]	100
COc1ccc(-c2cncc(C#N)c2Nc2ccc3[nH]ccc3c2)cc1OCCNCc1ccccc1 [Compound 181, 5-{3-[2-(benzylamino)ethoxy]-4-methoxyphenyl}-4-(1H-indol-5-ylamino)nicotinonitrile]	39
Cc1c(Nc2c(C#N)cncc2-c2cccc(-c3cccs3)c2)ccc2[nH]ccc12 [Compound 304, 4-[(4-methyl-1H-indol-5-yl)amino]-5-[3-(2-thienyl)phenyl]nicotinonitrile]	110
N#Cc1cncc(-c2cccnc2)c1Nc1ccc2[nH]ccc2c1 [Compound 259, 4-(1H-indol-5-ylamino)-3,3′-bipyridine-5-carbonitrile]	1370
N#Cc1cncc(-c2cccc(C(N)=O)c2)c1Nc1cccc2[nH]ccc12 [Compound 314, 3-[5-cyano-4-(1H-indol-4-ylamino)pyridin-3-yl]benzamide]	100
CN(C)S(=O)(=O)c1ccccc1-c1cncc(C#N)c1Nc1cccc2[nH]ccc12 [Compound 316, 2-[5-cyano-4-(1H-indol-4-ylamino)pyridin-3-yl]-N,N-dimethylbenzenesulfonamide]	1350
Cc1c(Nc2c(C#N)cncc2-c2ccc(OCCCCCl)cc2)ccc2[nH]ccc12 [Compound 490, 5-[4-(4-chlorobutoxy)phenyl]-4-[(4-methyl-1H-indol-5-yl)amino]nicotinonitrile]	51
4-[(4-methyl-1H-indol-5-yl)amino]-5-[5-(thiomorpholin-4-ylmethyl)-2-furyl]nicotinonitrile [Compound 411]	8
COc1ccc(-c2cncc(C#N)c2Nc2ccc3[nH]ccc3c2)cc1OCCN1CCSCC1 [Compound 233, 4-(1H-indol-5-ylamino)-5-[4-methoxy-3-(2-thiomorpholin-4-ylethoxy)phenyl]nicotinonitrile]	180
N#Cc1cncc(-c2cccc(-c3cc[nH]c3)c2)c1Nc1ccc2[nH]ccc2c1 [Compound 124, 4-(1H-indol-5-ylamino)-5-[3-(1H-pyrrol-3-yl)phenyl]nicotinonitrile]	1100
N#Cc1cncc(-c2cccs2)c1Nc1ccc2[nH]ccc2c1 [Compound 267, 4-(1H-indol-5-ylamino)-5-(2-thienyl)nicotinonitrile]	100
N#Cc1cncc(-c2cc3cc(C4OCCCO4)ccc3o2)c1Nc1cccc2[nH]ccc12 [Compound 369, 5-[5-(1,3-dioxan-2-yl)-1-benzofuran-2-yl]-4-(1H-indol-4-ylamino)nicotinonitrile]	40
COc1ccc(-c2cncc(C#N)c2Nc2ccc3[nH]ccc3c2)cc1-c1cccs1 [Compound 189, 4-(1H-indol-5-ylamino)-5-[4-methoxy-3-(2-thienyl)phenyl]nicotinonitrile]	30

Other lines, results leading:

IC50 [nM]	Compound
23	Cc1c(Nc2c(C#N)cncc2-c2cnc(C=O)n2C)ccc2[nH]ccc12 [Compound 537, 5-(2-formyl-1-methyl-1H-imidazol-5-yl)-4-[(4-methyl-1H-indol-5-yl)amino]nicotinonitrile]
20	COc1ccc(-c2cncc(C#N)c2Nc2cccc3[nH]ccc23)cc1OCCN1CCN(C)CC1 [Compound 300, 4-(1H-indol-4-ylamino)-5-{4-methoxy-3-[2-(4-methylpiperazin-1-yl)ethoxy]phenyl}nicotinonitrile]
17	Cc1c(Nc2c(C#N)cncc2-c2ccc(OCCN3CCN(c4ccccn4)CC3)cc2)ccc2[nH]ccc12 [Compound 430, 4-[(4-methyl-1H-indol-5-yl)amino]-5-{4-[2-(4-pyridin-2-ylpiperazin-1-yl)ethoxy]phenyl}nicotinonitrile]
17	Cc1c(Nc2c(C#N)cncc2-c2ccc(OCCN(C)C)cc2)cc(Cl)c2[nH]ccc12 [Compound 534, 4-[(7-chloro-4-methyl-1H-indol-5-yl)amino]-5-{4-[2-(dimethylamino)ethoxy]phenyl}nicotinonitrile]
16	CNC(=O)c1ccc(-c2cncc(C#N)c2Nc2ccc3[nH]ccc3c2C)cc1 [Compound 580, 4-{5-cyano-4-[(4-methyl-1H-indol-5-yl)amino]pyridin-3-yl}-N-methylbenzamide]
11	Cc1c(Nc2c(C#N)cncc2-c2ccc(OCCN3CCC(N4CCCC4)CC3)cc2)ccc2[nH]ccc12 [Compound 423, 4-[(4-methyl-1H-indol-5-yl)amino]-5-{4-[2-(4-pyrrolidin-1-ylpiperidin-1-yl)ethoxy]phenyl}nicotinonitrile]
10	CN1CCN(CCOc2ccc(-c3cncc(C#N)c3Nc3cccc4[nH]ccc34)cc2)CC1 [Compound 335, 4-(1H-indol-4-ylamino)-5-{4-[2-(4-methylpiperazin-1-yl)ethoxy]phenyl}nicotinonitrile]
10	COC(=O)Nc1ccc(-c2cncc(C#N)c2Nc2ccc3[nH]ccc3c2C)cc1 [Compound 526, methyl (4-{5-cyano-4-[(4-methyl-1H-indol-5-yl)amino]pyridin-3-yl}phenyl)carbamate]
10	COc1ccc(-c2cncc(C#N)c2Nc2cc3cc[nH]c3cc2C)cc1OC [Compound 412, 5-(3,4-dimethoxyphenyl)-4-[(6-methyl-1H-indol-5-yl)amino]nicotinonitrile]
8.7	Cc1c(Nc2c(C#N)cncc2-c2cc3ccccc3n2C)ccc2[nH]ccc12 [Compound 586, 5-(1-methyl-1H-indol-2-yl)-4-[(4-methyl-1H-indol-5-yl)amino]nicotinonitrile]
8	COc1cc(-c2cncc(C#N)c2Nc2ccc3[nH]ccc3c2C)ccc1OCCNCCCc1ccccc1 [Compound 344, 5-(3-methoxy-4-{2-[(3-phenylpropyl)amino]ethoxy}phenyl)-4-[(4-methyl-1H-indol-5-yl)amino]nicotinonitrile]
8	Cc1c(Nc2c(C#N)cncc2-c2ccc(OCCN3CCN(C)CC3)cc2)ccc2[nH]ccc12 [Compound 350, 4-[(4-methyl-1H-indol-5-yl)amino]-5-{4-[2-(4-methylpiperazin-1-yl)ethoxy]phenyl}nicotinonitrile]
6	COc1ccc(-c2cncc(C#N)c2Nc2ccc3[nH]ccc3c2C)cc1OC [Compound 218, 5-(3,4-dimethoxyphenyl)-4-[(4-methyl-1H-indol-5-yl)amino]nicotinonitrile]
5	Cc1c(Nc2c(C#N)cncc2-c2ccc(OCCNCCCn3ccnc3)cc2)ccc2[nH]ccc12 [Compound 429, 5-[4-(2-{[3-(1H-imidazol-1-yl)propyl]amino}ethoxy)phenyl]-4-[(4-methyl-1H-indol-5-yl)amino]nicotinonitrile]
5	Cc1c(Nc2c(C#N)cncc2-c2cc3cc(CN4CCNCC4)ccc3o2)ccc2[nH]ccc12 [Compound 540, 4-[(4-methyl-1H-indol-5-yl)amino]-5-[5-(piperazin-1-ylmethyl)-1-benzofuran-2-yl]nicotinonitrile]
4	COc1ccc(-c2cncc(C#N)c2Nc2cccc3[nH]ccc23)cc1OCCNCCCn1ccnc1 [Compound 365, 5-[3-(2-{[3-(1H-imidazol-1-yl)propyl]amino}ethoxy)-4-methoxyphenyl]-4-(1H-indol-4-ylamino)nicotinonitrile]
4	CN(C)Cc1ccc2sc(-c3cncc(C#N)c3Nc3cccc4[nH]ccc34)cc2c1 [Compound 224, 5-{5-[(dimethylamino)methyl]-1-benzothien-2-yl}-4-(1H-indol-4-ylamino)nicotinonitrile]
4	Cc1c(Nc2c(C#N)cncc2-c2ccc(OCCN3CCC(N4CCOCC4)CC3)cc2)ccc2[nH]ccc12 [Compound 424, 4-[(4-methyl-1H-indol-5-yl)amino]-5-{4-[2-(4-morpholin-4-ylpiperidin-1-yl)ethoxy]phenyl}nicotinonitrile]
2	Cc1c(Nc2c(C#N)cncc2-c2cc3cc(CNCc4ccncc4)ccc3o2)ccc2[nH]ccc12 [Compound 400, 4-[(4-methyl-1H-indol-5-yl)amino]-5-(5-{[(pyridin-4-ylmethyl)amino]methyl}-1-benzofuran-2-yl)nicotinonitrile]
1	Cc1c(Nc2c(C#N)cncc2-c2ccc(CN3CCC(N(C)C)CC3)o2)ccc2[nH]ccc12 [Compound 436, 5-(5-{[4-(dimethylamino)piperidin-1-yl]methyl}-2-furyl)-4-[(4-methyl-1H-indol-5-yl)amino]nicotinonitrile]
